Measured values published in patent publication US20260234163A1, “NOVEL COMPOUNDS AND USES THEREOF” (ACELINK THERAPEUTICS, INC., priority 2023, published 2026).
Like-named read-outs stand apart in the source and are kept apart here.

What was measured:
[1] = 21-membered ring
Keap1-Nrf2 = target: T1, Keap1-Nrf2 (Homo sapiens, UniProt Q14145); assay: Keap1-Nrf2 Binding Inhibitory Activity Assay (fluorescence polarization, Keap1_FL + FITC-Nrf2 peptide); conditions: Keap1-FL, 60 min room temperature
T1 construct: purchased Sino Biological 11981-H20B
Method: Example 2.1 Keap1-Nrf2 Binding Inhibitory Activity Assay
• PerkinElmer EnVision 2105 Multilabel Reader • PerkinElmer FITC FP dual emission Label 2100-8060 • LABCYTE Echo 650 • Corning 384-well microplate #4514 • Keap1_FL, Sino Biological, catalog 11981-H20B • FITC-Nrf2 peptide, GL Biochem, Lot No: p210427-XQ892761
• a) Reference titration • 1. Keap1-Nrf2 Assay Buffer was prepared: 10 mM Tris-HCl pH 7.4, 150 mM NaCl, 50 mM EDTA, 0.05% Tween20, 0.1 mg/ml BSA (freshly add before use). • 2. 2.04× Tracer working solution was prepared: 2.04 nM FITC-Nrf2 peptide in Assay Buffer from 1 μM DMSO stock. • 3. 2× Protein working solution was prepared: 25 nM Keap1-FL in Assay Buffer. • 4. 100× compound working solutions with DMSO were prepared. Starting from 100 μM, serial 3-fold dilutions (10 points) were made by the Echo on the 384-well LDV microplate, then 200 nL of compounds, in duplicated wells, were transferred to a Corning 4514 plate. • 5. 9.8 μL per well of the Tracer working solution was added into the Corning 4514 plate. • 6. 10 μL per well of the Protein working solution was added into the Corning 4514 plate, except for the first two columns where Dilution Buffer were added to serve as “positive control”. • 7. The plate was incubated at room temperature for 60 min. • b) Read data on an EnVision with the following setting: Excitation Light (%): 84; Measurement Height: 9.4; G-Factor: 1; Detector Gain 1:220; Detector Gain 2: 220; Flash Number: 50.
All the Test Compounds were considered as having Keap1-Nrf2 binding inhibitory activity.

Nrf2 = Nrf2 Cellular Assay (pGL4.37[luc2P/ARE/Hygro] luciferase reporter in HepG2 cells); assay type: cell-based; conditions: Homo sapiens, HepG2, 6 h, ARE luciferase, 6 hours compound treatment
Method: Example 2.2 Nrf2 Cellular Assay
• 1. pGL4.37[luc2P/ARE/Hygro] vector was diluted to 25 ng/μL in Opti-MEM. • 2. Lipofectamine 3000 was added to a 2:1 lipid:DNA. The mixture was mixed by pipetting and incubate at room temperature for 15 minutes. • 3. HepG2 cells were cultured in complete medium (DMEM+10% FBS). • 4. Trypsin was added to the cells, which were filtered via a cell strainer to remove cell cluster, the cells were then quantified and diluted to 2×10^5 cells/ml in complete medium. • 5. The cells and plasmid were mixed, seeded to 384-well plate 50 μL per well (50 ng DNA/well) and incubated for 24 hours in a 37° C., 5% CO2 incubator.
• 1. Medium was removed from cells and replaced with 36 μL of DMEM+10% FBS per well. • 2. Incubated overnight in a 37° C., 5% CO2 incubator.
• 1. Test compound was serially diluted tin DMSO, and further diluted with DMEM (contains 10% FBS) to 10× final concentration. • 2. 4 μL of the 10× compound was added to each well, the plate was shaken for 10 sec on a plate shaker and incubated for 6 hours in a 37° C., 5% CO2 incubator.
• 1. Plates were removed from the 37° C., 5% CO2 incubator and allowed to cool to room temperature for approximately 15 minutes. • 2. 40 μL of the Glo Luciferase Assay System detection reagents were added, and the plate was shaken for 3 min and luminescence was measured.

Row | SMILES | IC50 (Keap1-Nrf2) | EC50 (Nrf2) | further results
1 | CCOC(=O)CC(c1ccc2c(c1)CNCC2)c1ccc2c(nnn2CCCCCN2CCN(C(=O)Oc3ccc([N+](=O)[O-])cc3)CC2)c1C (stereo not drawn) | – | – | ring closure, yield after HPLC ([1]; the molecule shown is the open-chain precursor, other bond, K2CO3 (microwave), DMF, 10.2 mM, 130.0 °C, 2 steps): 72%
2 | CCOC(=O)CC1c2cc(C)c3c(c2)CN(CC3)C(=O)c2ccc(cc2)COCCCn2nnc3c(C)c1ccc32 (stereo not drawn) | – | – | ring closure, isolated yield (from CCOC(=O)CC(c1cc(C)c2c(c1)CNCC2)c1ccc2c(nnn2CCCOCc2ccc(C(=O)O)cc2)c1C, amide bond, 21-membered ring, HATU/DIEA, DMF, 131.5 mM, 20.0 °C, 2.0 h): 77.9%
3 | CCOC(=O)CC1c2ccc(C)c(c2)CN(C)C(=O)c2ccc(cc2)COCCCn2nnc3c(C)c1ccc32 (stereo not drawn) | – | – | ring closure, isolated yield (from CCOC(=O)CC(c1ccc(C)c(CNC)c1)c1ccc2c(nnn2CCCOCc2ccc(C(=O)O)cc2)c1C, amide bond, 21-membered ring, HATU/DIEA, DMF, 46.6 mM, 20.0 °C, 2.0 h): 95.2%
4 | CCOC(=O)CC1c2ccc3c(c2)CN(CC3)C(=O)C2CCN(CCCCCn3nnc4c(C)c1ccc43)CC2 (stereo not drawn) | – | – | ring closure, isolated yield (from CCOC(=O)CC(c1ccc2c(c1)CNCC2)c1ccc2c(nnn2CCCCCN2CCC(C(=O)O)CC2)c1C, amide bond, 21-membered ring, HATU/DIEA, DMF, 96.0 mM, 0.0 °C): 79.5%
5 | CCOC(=O)CC1c2ccc3c(c2)CN(CC3)C(=O)C2CCN(CCOCCn3nnc4c(C)c1ccc43)CC2 (stereo not drawn) | – | – | ring closure, isolated yield (from CCOC(=O)CC(c1ccc2c(c1)CNCC2)c1ccc2c(nnn2CCOCCN2CCC(C(=O)O)CC2)c1C, amide bond, 21-membered ring, HATU/DIEA, DMF, 142.0 mM, 25.0 °C): 38.2%
6 | CCOC(=O)CC1c2ccc3c(c2)CN(CC3)S(=O)(=O)N2CCC(CC2)OCC=CCn2nnc3c(C)c1ccc32 (stereo not drawn) | – | – | ring closure, yield after HPLC ([1]; from C=CCOC1CCN(S(=O)(=O)N2CCc3ccc(C(CC(=O)OCC)c4ccc5c(nnn5C/C=C/C)c4C)cc3C2)CC1, rcm bond, Grubbs catalyst, DCM, 6.2 mM, 40.0 °C, 19.0 h): 89.4%
7 | CCOC(=O)CC1c2ccc3c(c2)CN(CC3)S(=O)(=O)c2ccc(cc2)OCC=CCn2nnc3c(C)c1ccc32 (stereo not drawn) | – | – | ring closure, isolated yield (from C=CCOc1ccc(S(=O)(=O)N2CCc3ccc(C(CC(=O)OCC)c4ccc5c(nnn5C/C=C/C)c4C)cc3C2)cc1, rcm bond, 21-membered ring, Grubbs II, DCM, 40.0 mM, 25.0 °C, 19.0 h): 12.9%
8 | CCOC(=O)CC1c2ccc3c(c2)CN(CC3)S(=O)(=O)c2ccc(cc2)OCCOCCn2nnc3c(C)c1ccc32 (stereo not drawn) | – | – | ring closure, isolated yield (from CCOC(=O)CC(c1ccc2c(c1)CN(S(=O)(=O)c1ccc(O)cc1)CC2)c1ccc2c(nnn2CCOCCO)c1C, ether bond, 22-membered ring, DEAD/PPh3, DCM/THF, 28.8 mM, 20.0 °C, 4.0 h): 73.6%
9 | CCOC(=O)CC1c2cccc(c2)CN(C)C(=O)c2ccc(cc2)COCCCn2nnc3c(C)c1ccc32 (stereo not drawn) | – | – | ring closure, isolated yield (from CCOC(=O)CC(c1cccc(CNC)c1)c1ccc2c(nnn2CCCOCc2ccc(C(=O)O)cc2)c1C, amide bond, 21-membered ring, HATU/DIEA, DMF, 73.0 mM, 25.0 °C): 58.2%
10 | CCOC(=O)C[C@@H](c1ccc2c(c1)CNCC2)c1ccc2c(nnn2CCCOCC2CCN(C(=O)Oc3c(F)c(F)c(F)c(F)c3F)CC2)c1C | – | – | ring closure, yield after HPLC ([1]; the molecule shown is the open-chain precursor, other bond, K2CO3/microwave, DMF, 24.7 mM, 120.0 °C): 20.9%
11 | COC(=O)CC1c2ccc3c(nnn3CCOCCOC3CCN(CC3)C(=O)c3ccc4c(c3)CN1CC4)c2C (stereo not drawn) | – | – | ring closure, isolated yield (from COC(=O)CC(c1ccc2c(nnn2CCOCCOC2CCNCC2)c1C)N1CCc2ccc(C(=O)O)cc2C1, amide bond, 22-membered ring, HATU/DIEA, DMF, 35.4 mM, 20.0 °C, 2.0 h): 90.4%
12 | Cc1c2ccc3c1nnn3CCOCCN1CCN(CC1)C(=O)c1ccc3ccc(cc3c1)C2CC(=O)OC(C)(C)C (stereo not drawn) | – | – | ring closure, isolated yield (from Cc1c(C(CC(=O)OC(C)(C)C)c2ccc3ccc(C(=O)O)cc3c2)ccc2c1nnn2CCOCCN1CCNCC1, amide bond, 21-membered ring, HATU/DIEA, DMF, 72.0 mM, 25.0 °C, 19.0 h): 19.5%
13 | O=C(CC1c2ccc3c(c2)CN(CC3)C(=O)N2CCC(C=CCCCn3nnc4c(Cl)c1ccc43)CC2)OCc1ccccc1 (stereo not drawn) | – | – | ring closure, isolated yield (from C=CCCCn1nnc2c(Cl)c(C(CC(=O)OCc3ccccc3)c3ccc4c(c3)CN(C(=O)N3CCC(C=C)CC3)CC4)ccc21, rcm bond, 21-membered ring, Grubbs II, DCM, 53.3 mM, 19.0 h): 13.3%
14 | O=C(O)CC1c2ccc3c(c2)CN(CC3)C(=O)N2CCC(CCCCCn3nnc4c(Cl)c1ccc43)CC2 (stereo not drawn) [Compound 30, 2-(1^4-chloro-4-oxo-3^1,3^2,3^3,3^4-tetrahydro-1^1H-3(7,2)-isoquinolina-1(5,1)-benzo[d][1,2,3]triazola-5(1,4)-piperidinacyclodecaphane-2-yl)acetic acid] | ≤ 100 nM | ≤ 10 µM | –
15 | Cc1c2ccc3c1nnn3CCCCC1CCC(CC1)C(=O)N1CCc3ccc(cc3C1)C2CC(=O)O (stereo not drawn) [Compound 34] | ≤ 100 nM | ≤ 10 µM | –
16 | Cc1c2ccc3c1nnn3CCCCCC1CCC(CC1)C(=O)N1CCc3ccc(cc3C1)C2CC(=O)O (stereo not drawn) [Compound 35] | ≤ 100 nM | ≤ 10 µM | –
17 | Cc1c2ccc3c1nnn3CCCCCC1CCC(CC1)C(=O)N(C)Cc1cccc(c1)C2CC(=O)O (stereo not drawn) [Compound 37] | 100 to 1000 nM | ≤ 10 µM | –
18 | Cc1c2ccc3c1nnn3CCCCCCCCN(C)C(=O)N1CCc3ccc(cc3C1)C2CC(=O)O (stereo not drawn) [Compound 40] | ≤ 100 nM | 10 to 30 µM | –
19 | O=C(O)CC1c2ccc3c(c2)CN(CC3)C(=O)C2CCC(CCCCCn3nnc4cc1cnc43)CC2 (stereo not drawn) [Compound 55, 2-(4-oxo-31,32,33,34-tetrahydro-13H-3(7,2)-isoquinolina-1(6,3)-[1,2,3]triazolo[4,5-b]pyridina-5(1,4)-cyclohexanacyclodecaphane-2-yl)acetic acid] | ≤ 100 nM | ≤ 10 µM | –
20 | O=C(O)CC1c2ccc3c(c2)CN(CC3)C(=O)C2CCC(CCCCn3nnc4cc1cnc43)CC2 (stereo not drawn) [Compound 56, 2-(4-oxo-31,32,33,34-tetrahydro-13H-3(7,2)-isoquinolina-1(6,3)-[1,2,3]triazolo[4,5-b]pyridina-5(1,4)-cyclohexanacyclononaphane-2-yl)acetic acid] | ≤ 100 nM | 10 to 30 µM | –
